Results on 18 molecules are retold here after patent publication US20050101595A1, “N-containing cycloalkyl-substituted amino-thiazole derivatives and pharmaceutical compositions for inhibiting cell proliferation and methods for their use” (PFIZER INC., priority 2003, published 2005).

In one test the target is CDK2/Cyclin A (Homo sapiens, UniProt P24941). Description: Inhibition of CDK2/Cyclin A Retinoblastoma Kinase Activity. The format is biochemical. The conditions noted are these: apparent Ki, CDK2/proteolyzed cyclin A, Rb fragment substrate, 25 μM ATP. The method in brief:
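Percent inhibition is calculated against DMSO-only wells after subtracting no-enzyme background. The enzyme is human CDK2 complexed with proteolyzed cyclin A, used at 10 nM or 19 nM on an Rb fragment with 25 μM [32/33P]ATP, at pH 7.4 and 30° C.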

The target of test [1] is human CDK4 and genetically truncated (1-264) cyclin D3 (Homo sapiens, UniProt P11802). Description: Inhibition of CDK4/Cyclin D Retinoblastoma Kinase Activity. The format is biochemical. Particulars: apparent Ki, CDK4/truncated cyclin D3, Rb fragment substrate, 25 μM ATP. A digest of the protocol: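 Apparent Ki values derive from fitting activity at varied inhibitor concentrations to a competitive (or competitive tight-binding) model. Kinase reactions used 5 nM CDK4/cyclin D3(1-264), Rb fragment substrate and 25 μM ATP. Incubation ran 20 min at 30 °C, extended to 60 min under linear conditions for tight binders.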

A further test concerns HCT-116 cell line. Description: Inhibition of cell growth, tetrazolium salt (MTT) assay. Type of test: cell-based. The conditions noted are these: Homo sapiens, HCT-116, 120 h, MTT, three to five days, read-out: HCT-116 IC50. A digest of the protocol: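 First, cells were seeded in McCoy's 5A medium and held 4 h. Next, inhibitor concentrations in 0.5% (v/v) DMSO were applied for three to five days at 37° C, 5% CO2. Finally, after 4 h with 0.2 mg/mL MTT and medium removal, solubilized formazan was measured at 540 nm.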

Usually IC50 stands for the point on the concentration scale where inhibition reaches its midpoint.

Where a name gives a salt, the structure may show the parent alone. Read-outs that look alike come from different tables or passages of the source.

Sequence of human CDK4 and genetically truncated (1-264) cyclin D3 (P11802 whole entry, the tested form may be a part): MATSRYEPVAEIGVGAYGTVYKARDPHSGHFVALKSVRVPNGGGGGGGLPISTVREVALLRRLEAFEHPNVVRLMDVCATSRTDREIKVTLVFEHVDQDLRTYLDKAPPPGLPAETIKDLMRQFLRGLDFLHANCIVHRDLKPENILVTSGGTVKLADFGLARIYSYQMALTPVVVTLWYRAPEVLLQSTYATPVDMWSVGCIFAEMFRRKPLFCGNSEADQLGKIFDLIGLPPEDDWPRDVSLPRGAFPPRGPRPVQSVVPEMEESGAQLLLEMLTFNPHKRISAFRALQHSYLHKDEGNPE
Sequence of human CDK4 and genetically truncated (1-264) cyclin D3 (P30281 1-264 partner): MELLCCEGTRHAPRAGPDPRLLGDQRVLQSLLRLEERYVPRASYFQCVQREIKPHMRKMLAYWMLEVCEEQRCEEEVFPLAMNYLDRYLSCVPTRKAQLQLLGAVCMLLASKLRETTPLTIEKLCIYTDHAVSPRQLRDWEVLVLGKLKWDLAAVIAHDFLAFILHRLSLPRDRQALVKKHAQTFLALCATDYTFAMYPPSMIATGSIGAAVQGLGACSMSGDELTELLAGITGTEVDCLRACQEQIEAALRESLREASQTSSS

With `Nc1nc(NC2CCN(S(=O)(=O)c3ccc(N4CCC[C@H]4CO)nc3)CC2)sc1C(=O)c1c(F)cccc1F` [Example G14, 1-{4-Amino-2-{1-[6-(2S-hydroxymethyl-pyrrolidin-1-yl)-pyridine-3-sulfonyl]-piperidin-4-ylamino}-thiazol-5-yl)-1-(2,6-difluoro-phenyl)-methanone Trifluoroacetic Acid Salt], the Ki at CDK2/Cyclin A turned out to be 0.5 nM; in test [1], 0.8 nM. Moreover, the IC50 was found to be 140 nM with HCT-116 cell line (first HCT-116 column (c4)) and 3500 nM in the test with HCT-116 cell line (second HCT-116 column (c5)).

For the molecule `C[C@@H]1CN(c2ccc(S(=O)(=O)N3CCC(Nc4nc(N)c(C(=O)c5c(F)cccc5F)s4)CC3)cn2)C[C@H](C)N1` [Example G15, 1-(4-Amino-2-{1-[6-(3,5-dimethyl-piperizin-1-yl)-pyridin-3-sulfonyl]-piperidin-4-ylamino}-thiazol-5-yl)-1-(2,6-difluoro-phenyl)-methanone Trifluoroacetic Acid Salt], the Ki was 0.73 nM at CDK2/Cyclin A and 0.28 nM in test [1]. Also, the IC50 with HCT-116 cell line (first HCT-116 column (c4)) is 79 nM; in the test on HCT-116 cell line (second HCT-116 column (c5)), > 500 nM.

Consider `Nc1nc(NC2CCN(S(=O)(=O)c3ccc(N4CCN(C=O)CC4)nc3)CC2)sc1C(=O)c1c(F)cccc1F` [Example G16, Trifluoroacetic Acid Salt], for which the Ki worked out at 0.51 nM at CDK2/Cyclin A and 0.63 nM in test [1]. Moreover, the IC50 in the test with HCT-116 cell line (first HCT-116 column (c4)) is 290 nM; in the test on HCT-116 cell line (second HCT-116 column (c5)), > 5000 nM.

As to `C[C@@H](O)CN(C)c1ccc(S(=O)(=O)N2CCC(Nc3nc(N)c(C(=O)c4c(F)cccc4F)s3)CC2)cn1` [Example G17, 1-[4-Amino-2-(1-{6-[((R)-2-hydroxy-propyl)-methyl-amino]-pyridine-3-sulfonyl}-piperidine-4-ylamino)-thiazol-5-yl]-1-(2,6-difluoro-phenyl)-methanone Trifluoroacetic Acid Salt], the Ki on CDK2/Cyclin A worked out at 0.55 nM; in test [1], 1.4 nM. Besides, the half-maximal inhibitory concentration (IC50) amounted to 360 nM with HCT-116 cell line (first HCT-116 column (c4)) and 900 nM in the test on HCT-116 cell line (second HCT-116 column (c5)).

As for `Nc1nc(NC2CCN(S(=O)(=O)c3ccc(NCC(O)CO)nc3)CC2)sc1C(=O)c1c(F)cccc1F` (stereo not drawn) [Example G19, 1-(4-Amino-2-{1-[6-(2,3-dihydroxy-propylamino)-pyridine-3-sulfonyl]-piperidin-4-ylamino}-thiazol-5-yl)-1-(2,6-difluoro-phenyl)-methanone], the Ki turned out to be 2 nM at CDK2/Cyclin A and 3.4 nM in test [1]. Besides, the half-inhibitory concentration (IC50) in the test with HCT-116 cell line (first HCT-116 column (c4)) was 4100 nM; in the test on HCT-116 cell line (second HCT-116 column (c5)) it was > 5000 nM.

In the case of `CC1(C)CN(c2ccc(S(=O)(=O)N3CCC(Nc4nc(N)c(C(=O)c5c(F)cccc5F)s4)CC3)cn2)C=N1` [Example G21, 1-(4-Amino-2-{1-[6-(4,4-dimethyl-4,5-dihydro-imidazol-1-yl)-pyridine-3-sulfonyl]-piperidin-4-ylamino}-thiazol-5-yl)-1-(2,6-difluoro-phenyl)-methanone], the Ki at CDK2/Cyclin A is < 1 nM; in test [1] it was 0.68 nM. Besides, the IC50 is 1900 nM in the test with HCT-116 cell line (first HCT-116 column (c4)) and > 5000 nM with HCT-116 cell line (second HCT-116 column (c5)).

In the case of `CC1(C)CN(c2ccc(S(=O)(=O)N3CCC(Nc4nc(N)c(C(=O)c5c(F)cccc5F)s4)CC3)cn2)CCN1` [Example G22, 1-(4-Amino-2-{1-[6-(3,3-dimethyl-piperazin-1-yl)-pyridine-3-sulfonyl]-piperidin-4-ylamino}-thiazol-5-yl)-1-(2,6-difluoro-phenyl)-methanone], the figures for the Ki (on CDK2/Cyclin A; in test [1]) were 0.66 nM and 0.22 nM, respectively. For the same molecule, the IC50 with HCT-116 cell line (first HCT-116 column (c4)) worked out at 210 nM; in the test with HCT-116 cell line (second HCT-116 column (c5)), 3000 nM.

Consider `CC1=NC(C)CN1c1ccc(S(=O)(=O)N2CCC(Nc3nc(N)c(C(=O)c4c(F)cccc4F)s3)CC2)cn1` (stereo not drawn) [Example G23, 1-(4-Amino-2-{1-[6-(2,4-dimethyl-4,5-dihydro-imidazol-1-yl)-pyridin-3-sulfonyl]-piperidin-4-ylamino}-thiazol-5-yl)-1-(2,6-difluoro-phenyl)-methanone Hydrochloride], for which the Ki was < 1 nM on CDK2/Cyclin A and 0.44 nM in test [1]. For the same molecule, the IC50 with HCT-116 cell line (first HCT-116 column (c4)) is 750 nM; in the test with HCT-116 cell line (second HCT-116 column (c5)) it was 5000 nM.

For the molecule `CN(C)CCN(C)c1ncc(S(=O)(=O)N2CCC(Nc3nc(N)c(C(=O)c4c(F)cccc4F)s3)CC2)cc1Br` [Example G24, 1-[4-Amino-2-(1-{5-bromo-6-[(2-dimethylamino-ethyl)-methyl-amino]-pyridine-3-sulfonyl}-piperidin-4-ylamino)-thiazol-5-yl]-1-(2,6-difluoro-phenyl)-methanone], the Ki worked out at 0.85 nM on CDK2/Cyclin A and 0.48 nM in test [1]. In addition, the values for the IC50 in the test on HCT-116 cell line (first HCT-116 column (c4)) and in the test on HCT-116 cell line (second HCT-116 column (c5)) were 290 nM and 620 nM, respectively.

Take `Nc1nc(NC2CCN(S(=O)(=O)c3ccc(-n4ccnc4)nc3)CC2)sc1C(=O)c1c(F)cccc1F` [Example G25, 1-{4-Amino-2-[1-(6-imidazol-1-yl-pyridine-3-sulfonyl)-piperidin-4-ylamino]-thiazol-5-yl}-1-(2,6-difluoro-phenyl)-methanone Trifluoroacetic Acid Salt]: the Ki on CDK2/Cyclin A was found to be 0.27 nM; in test [1], 0.36 nM. The IC50 is 63 nM in the test on HCT-116 cell line (first HCT-116 column (c4)) and > 500 nM in the test with HCT-116 cell line (second HCT-116 column (c5)).

Turning to `Cc1nccn1-c1ccc(S(=O)(=O)N2CCC(Nc3nc(N)c(C(=O)c4c(F)cccc4F)s3)CC2)cn1` [Example G26, 1-(4-Amino-2-{1-[6-(2-methyl-imidazol-1-yl)-pyridine-3-sulfonyl]-piperidin-4-ylamino}-thiazol-5-yl)-1-(2,6-difluoro-phenyl)-methanone], the Ki was 0.64 nM on CDK2/Cyclin A and 1.3 nM in test [1]. The IC50 was found to be 140 nM in the test with HCT-116 cell line (first HCT-116 column (c4)) and 220 nM in the test on HCT-116 cell line (second HCT-116 column (c5)).

As for `Cc1cn(-c2ccc(S(=O)(=O)N3CCC(Nc4nc(N)c(C(=O)c5c(F)cccc5F)s4)CC3)cn2)cn1` [Example G27, 1-(4-Amino-2-{1-[6-(4-methyl-imidazol-1-yl)-pyridine-3-sulfonyl]-piperidin-4-ylamino}-thiazol-5-yl)-1-(2,6-difluoro-phenyl)-methanone Hydrochloride], the Ki on CDK2/Cyclin A is 0.41 nM; in test [1], < 1 nM. Moreover, the figures for the IC50 with HCT-116 cell line (first HCT-116 column (c4)) and in the test on HCT-116 cell line (second HCT-116 column (c5)) were 57 nM and 250 nM, respectively.

For the molecule `Cc1cncn1-c1ccc(S(=O)(=O)N2CCC(Nc3nc(N)c(C(=O)c4c(F)cccc4F)s3)CC2)cn1` [Example G28, 1-(4-Amino-2-{1-[6-(5-methyl-imidazol-1-yl)-pyridine-3-sulfonyl]-piperidin-4-ylamino}-thiazol-5-yl)-1-(2,6-difluoro-phenyl)-methanone Hydrochloride], the Ki on CDK2/Cyclin A was determined as 0.4 nM; in test [1], 0.85 nM. Also, the IC50 was found to be 160 nM with HCT-116 cell line (first HCT-116 column (c4)) and 330 nM with HCT-116 cell line (second HCT-116 column (c5)).

As for `C[C@@H]1CN(c2ccc(S(=O)(=O)N3CCC(Nc4nc(N)c(C(=O)c5c(F)cccc5F)s4)CC3)cc2)C[C@H](C)N1` [Example G29, 1-(4-Amino-2-{1-[4-(3R,5S-dimethyl-piperazin-1-yl)-benzenesulfonyl]-piperidin-4-ylamino}-thiazol-5-yl)-1-(2,6-difluoro-phenyl)-methanone], the Ki worked out at 0.72 nM on CDK2/Cyclin A and 0.61 nM in test [1]. Also, the results for the IC50 in the test on HCT-116 cell line (first HCT-116 column (c4)) and in the test on HCT-116 cell line (second HCT-116 column (c5)) were 45 nM and 250 nM, respectively.

As to `CC1(C)CN(c2ccc(S(=O)(=O)N3CCC(Nc4nc(N)c(C(=O)c5c(F)cccc5F)s4)CC3)cc2)CCN1` [Example G31, 1-(4-Amino-2-{1-[4-(3,3-dimethyl-piperazin-1-yl)-benzenesulfonyl]-piperidin-4-ylamino}-thiazol-5-yl)-1-(2,6-difluoro-phenyl)-methanone], the Ki is 0.82 nM at CDK2/Cyclin A and 0.53 nM in test [1]. In addition, the values for the IC50 with HCT-116 cell line (first HCT-116 column (c4)) and in the test on HCT-116 cell line (second HCT-116 column (c5)) were 110 nM and 1500 nM, respectively.

With `CN(C)CCN(C)c1ccc(C(=O)N2CCC(Nc3nc(N)c(C(=O)c4c(F)cccc4F)s3)CC2)cn1` [Example G32, 1-{4-Amino-2-[1-(1-{6-[(2-dimethylamino-ethyl)-methyl-amino]-pyridin-3-yl}-methanoyl)-piperidin-4-ylamino]-thiazol-5-yl}-1-(2,6-difluoro-phenyl)-methanone Trifluoroacetic Acid Salt], the figures for the Ki (on CDK2/Cyclin A; in test [1]) were 60 nM and 42 nM, respectively. The figures for the IC50 with HCT-116 cell line (first HCT-116 column (c4)) and in the test on HCT-116 cell line (second HCT-116 column (c5)) were 4700 nM and > 5000 nM, respectively.

As to `C[C@@H]1CN(c2ncc(S(=O)(=O)N3CCC(Nc4nc(N)c(C(=O)c5c(F)cccc5F)s4)CC3)cn2)C[C@H](C)N1` [Example G33, (4-Amino-2-{1-[2-(3,5-dimethyl-piperazine-1-yl)-pyrimidine-5-sulfonyl]-piperidine-4-ylamino}-thiazol-5-yl)-(2,6-difluoro-phenyl)-methanone Hydrochloride Salt], the figures for the Ki (at CDK2/Cyclin A; in test [1]) were 1 nM and 0.3 nM, respectively. Further, the IC50 in the test on HCT-116 cell line (first HCT-116 column (c4)) amounted to 51 nM; in the test on HCT-116 cell line (second HCT-116 column (c5)), 800 nM.

`CN1CCN(c2ncc(S(=O)(=O)N3CCC(Nc4nc(N)c(C(=O)c5c(F)cccc5F)s4)CC3)cn2)CC1` [Example G34, (4-Amino-2-{1-[2-(4-methyl-piperazin-1-yl)-pyrimindine-5-sulfonyl]-piperidin-4-ylamino}-thiazol-5-yl)-(2,6-difluoro-phenyl)-methanone Hydrochloride Salt]: the Ki at CDK2/Cyclin A was found to be 0.82 nM; in test [1], 0.57 nM. In addition, the IC50 in the test on HCT-116 cell line (first HCT-116 column (c4)) was 40 nM; with HCT-116 cell line (second HCT-116 column (c5)) it was 250 nM.
